Values joined by “and” are separate entries in the source; they are usually repeats but may differ in a detail not shown here. Identical values can stand only once. Like-named read-outs stand apart in the source and are kept apart here.
Tested on: SARS-CoV-2 replicon
Assay: microbe, parasite or virus in culture
Format: cell-based
[1] = Severe acute respiratory syndrome coronavirus 2, Huh-7, 24 h; read-out: Replicon EC50

Row | SMILES | EC50 (read-out: Replicon EC50) | EC50 [1] | EC50 (Severe acute respiratory syndrome coronavirus 2, Huh-7, 24 h, read-out: Replicon EC50)
1 | CC(C)(C)[C@H](NS(=O)(=O)c1ccc(C(F)(F)F)cc1)C(=O)N1C[C@H]2[C@@H]([C@H]1C(=O)N[C@H](C#N)C[C@@H]1CCNC1=O)C2(C)C [Compound 44] | > 30000 nM |  | 
2 | CC(C)(C)[C@H](NC(=S)Nc1cccc(C(F)(F)F)c1)C(=O)N1C[C@H]2[C@@H]([C@H]1C(=O)N[C@H](C#N)C[C@@H]1CCNC1=O)C2(C)C [Compound 52] |  | 410 nM | 
3 | CC(C)(C)NC(=S)N[C@H](C(=O)N1C[C@H]2[C@@H]([C@H]1C(=O)N[C@H](C#N)C[C@@H]1CCNC1=O)C2(C)C)C(C)(C)C [Compound 56] |  |  | 370 nM
4 | CN1CCCC1C(=O)N[C@H](C(=O)N1C[C@H]2[C@@H]([C@H]1C(=O)N[C@H](C#N)C[C@@H]1CCNC1=O)C2(C)C)C(C)(C)C (stereo partly drawn) [Compound 58] |  | 4720 nM | 
5 | CNC(C)(C)C(=O)N[C@H](C(=O)N1C[C@H]2[C@@H]([C@H]1C(=O)N[C@H](C#N)C[C@@H]1CCNC1=O)C2(C)C)C(C)(C)C [Compound 59] |  | 16200 nM | 
6 | CC(C)(C)OC(=O)N(C(=O)N1C[C@H]2[C@@H]([C@H]1C(=O)N[C@H](C#N)C[C@@H]1CCNC1=O)C2(C)C)[C@@H]1C[C@H]1C(F)F [Compound 60] |  | > 30000 nM | 
7 | C=CC(=O)N[C@H](C(=O)N1C[C@H]2[C@@H]([C@H]1C(=O)N[C@H](C#N)C[C@@H]1CCNC1=O)C2(C)C)C(C)(C)C [Compound 61] |  | 2740 nM | 
8 | CC(C)(C)[C@H](NS(=O)(=O)N1CC2CC1C2)C(=O)N1C[C@H]2[C@@H]([C@H]1C(=O)N[C@H](C#N)C[C@@H]1CCNC1=O)C2(C)C [Compound 62] |  | 1490 nM | 
9 | CC(C)(C)[C@H](NC(=O)C1CC2(CCC2)C1)C(=O)N1C[C@H]2[C@@H]([C@H]1C(=O)N[C@H](C#N)C[C@@H]1CCNC1=O)C2(C)C [Compound 63] |  | 730 nM | 
10 | CC(C)(C)[C@H](NC(=O)CS(C)(=O)=O)C(=O)N1C[C@H]2[C@@H]([C@H]1C(=O)N[C@H](C#N)C[C@@H]1CCNC1=O)C2(C)C [Compound 64] |  | 990 nM | 
11 | CC1(C(=O)N[C@H](C(=O)N2C[C@H]3[C@@H]([C@H]2C(=O)N[C@H](C#N)C[C@@H]2CCNC2=O)C3(C)C)C(C)(C)C)CCCN1 (stereo partly drawn) [Compound 65] |  | 18700 nM | 
12 | COC1(CC(=O)N[C@H](C(=O)N2C[C@H]3[C@@H]([C@H]2C(=O)N[C@H](C#N)C[C@@H]2CCNC2=O)C3(C)C)C(C)(C)C)CCC1 [Compound 67] |  | > 30000 nM | 
13 | CC(C)(C)[C@H](NC(=O)CC12CC(C(F)(F)F)(C1)C2)C(=O)N1C[C@H]2[C@@H]([C@H]1C(=O)N[C@H](C#N)C[C@@H]1CCNC1=O)C2(C)C [Compound 68] |  | 1920 nM | 
14 | COC12CCC(C(=O)N[C@H](C(=O)N3C[C@H]4[C@@H]([C@H]3C(=O)N[C@H](C#N)C[C@@H]3CCNC3=O)C4(C)C)C(C)(C)C)(CC1)CC2 [Compound 69] |  | 10300 nM | 
15 | Cc1csc(S(=O)(=O)N[C@H](C(=O)N2C[C@H]3[C@@H]([C@H]2C(=O)N[C@H](C#N)C[C@@H]2CCNC2=O)C3(C)C)C(C)(C)C)c1 [Compound 112] | 86 nM | 62 nM | 
16 | C#CCC(=O)N[C@H](C(=O)N1C[C@H]2[C@@H]([C@H]1C(=O)N[C@H](C#N)C[C@@H]1CCNC1=O)C2(C)C)C(C)(C)C [Compound 136] | 320 nM and 420 nM and 540 nM | 300 nM | 
17 | CC(C)(C)[C@H](NS(=O)(=O)c1ccsc1)C(=O)N1C[C@H]2[C@@H]([C@H]1C(=O)N[C@H](C#N)C[C@@H]1CCNC1=O)C2(C)C [Compound 139] | 160 nM | 140 nM | 
18 | CCOc1ccccc1S(=O)(=O)N[C@H](C(=O)N1C[C@H]2[C@@H]([C@H]1C(=O)N[C@H](C#N)C[C@@H]1CCNC1=O)C2(C)C)C(C)(C)C [Compound 143] | 130 nM | 65 nM | 
19 | CC(C)(C)[C@H](NC(=O)C(F)(F)OCC(F)(F)F)C(=O)N1C[C@H]2[C@@H]([C@H]1C(=O)N[C@H](C#N)C[C@@H]1CCNC1=O)C2(C)C [Compound 144] | 180 nM | 110 nM | 

From patent publication US11760722B2 (priority 2022, dated 2023)
